According to patent publication US20110143939A1, “QUINOXALIN-2-ONE DERIVATIVES, COMPOSITIONS WHICH PROTECT USEFUL PLANTS AND COMPRISE THESE DERIVATIVES, AND PROCESSES FOR THEIR PREPARATION AND THEIR USE” (Bayer CropScience AG, priority 2004, published 2011):

SMILES | melting point [°C]
Nn1c(=O)c(-c2cccs2)nc2ccccc21 | 164
O=c1c(-c2cccs2)nc2ccccc2n1CC1CCCO1 (centres unmarked) | 123
Cn1c(=S)c(-c2cccs2)nc2ccccc21 | 113
Cn1c(=O)c(-c2ccccc2)nc2cc3c(cc21)OC(F)(F)O3 | 165

The remaining lines, values ahead:

melting point [°C] | SMILES
291 to 292 | O=c1[nH]c2cc3c(cc2nc1-c1ccccc1)OC(F)(F)O3
236 to 237 | CS(=O)(=O)NCCn1c(=O)c(-c2cccs2)nc2ccccc21
> 250 | Cl.NCCn1c(=O)c(-c2cccs2)nc2ccccc21
103 | O=c1c(-c2cccs2)nc2ccccc2n1CC1CCC1
